Data on two compounds can be found in patent US20250100977A1, “MERCAPTOPYRIMIDINE COMPOUNDS THAT INHIBIT NONHOMOLOGOUS END JOINING AND METHODS THEREOF” (INDIAN INSTITUTE OF SCIENCE, priority 2021, published 2025).

The test system of one series is SUDHL8. In words: Cytotoxicity in SUDHL8. It counts as cell-based. The conditions noted are these: Homo sapiens, SU-DHL-8; Table 2; read-out: IC50 in cancer cell lines, SUDHL8. The procedure:
(§1) Ligase IV specificity of the compounds of the present invention inside the cells were also determined using Ligase IV knock out (KO) cell line N114 compared to the wild type Nalm6 (Table 2, FIGS. 5C, D, E and F). […] Table 1 showing IC50 of SCR7 derivatives in cancer cell lines Nalm6 and HeLa. IC50 was calculated using GraphPad Prism software from the percentage of viable cells following treatment with the compounds at 48 h. Table 2 showing IC50 of SCR116 and SCR132 in a panel of 16 cancer cell lines.

For series [1] the following is noted: mouse, in vivo, po.
Experimental: The bioavailability of the compounds of the present disclosure were analysed in mice serum at different time points (0.5, 1, 2, 4, 6, 8, 10, 12, 24 and 48 h) by HPLC at 232 nm wavelength (FIGS. 10N-P).
A further series concerns Raji. In words: Cytotoxicity in Raji. Type of series: cell-based. The conditions noted are these: Homo sapiens, Raji; Table 2; read-out: IC50 in cancer cell lines, Raji. The procedure:
as §1

Another series has as its system 53BP1 foci in N114. In words: 53BP1 foci in N114 cells. Type of series: cell-based. The settings on record: 24 h, SCR116 2, 5 μM, SCR132 1, 2 μM. The procedure:
FIG. 8(A-B) depicts accumulation of DSBs inside cells following treatment with the compounds. A. Representative images for HeLa cells subjected to neutral comet assay following treatment with SCR116 and SCR132 for 24 h. […] FIG. 8C, D are representative images for Nalm6 cells (C) and N114 cells (D) following treatment with SCR116 and SCR132 for 24 h. and FIG. 8E, F are scatter plot depicting quantification of percentage of 53BP1 foci treated with SCR116 (2, 5 μM) and SCR132 (1, 2 μM) in Nalm6 and N114.

The subject of a further series is Molt4 derived xenograft. In words: Mouse xenograft model, Molt4. It counts as in vivo. The settings on record: for Tumor volume: alternate days; for Survival: tumor control animals died by day 18. How it is done:
Effect of the compounds was further evaluated in mouse xenograft model generated using Ligase IV high human leukemic cell line, Molt4. Oral doses of SCR116 and SCR132 at 10 mg/kg and 15 mg/kg respectively were administered on alternate days.

The next series has as its system CEM. In words: Cytotoxicity in CEM. It counts as cell-based. The settings on record: Homo sapiens, CCRF-CEM; Table 2; read-out: IC50 in cancer cell lines, CEM. How it is done: as §1
A further series relates to 53BP1 foci in HeLa cells. In words: 53BP1 immunofluorescence in HeLa cells. It counts as cell-based. The settings on record: alone or alongside radiation; 24 h. How it is done: FIG. 7(A-F) depicts evaluation of generation of double-strand breaks inside cells treated with compounds SCR116 and SCR132 alone or in combination, A. Immunofluorescence with 53BP1 in HeLa cells treated with increasing concentration of SCR116 (2 and 5 μM) and SCR132 (1 and 2 μM). Nucleus is stained in red using propidium iodide, while green signal represents 53BP1 foci (FITC). B. Quantification of 53BP1 foci inside HeLa cells treated with SCR116 and SCR132 for 24 h, as denoted using scatter plot. Significance was calculated using ANOVA in GraphPad Prism software (ns, not significant; *p<0.05, **p<0.005, ***p<0.0001). C-D. Bar graphs showing percentage of viable cells following treatment with the compounds alone, or in presence of γ-radiation (0.5 Gy) at 24 (C) and 48 h (D). 2 and 4 μM SCR116, and 1 and 2 μM SCR132 were used. E. Bar graph showing percentage of viable cells following treatment with SCR116 (0.375 μM) or SCR132 (0.125 μM) alone, or in presence of 0.25 μM etoposide at 48 h. F. Bar graph showing percentage of viable cells following treatment with SCR116 (0.375 μM) or SCR132 (0.125 μM) alone, or in presence of 0.375 μM 5-FU at 48 h, in accordance with an implementation of the present disclosure.

Another series addresses T1, Ligase I (Homo sapiens, UniProt P18858).
T1 construct: made in house; host or cells: bacteria
In words: Inhibition of end joining by purified Ligase I. It counts as biochemical. The settings on record: up to highest concentration of 1000 μM. The procedure: The compounds of the present invention were analysed for inhibition of end joining with purified Ligase I (FIG. 3A) and Ligase III/XRCC1 (FIG. 3F). The compounds were incubated with either purified Ligase I (FIG. 3B-E) or with Ligase III/XRCC1 (FIGS. 3G-J) in suitable NHEJ buffer at 25° C. for 30 min, followed by addition of radiolabeled DNA, and further incubation for 1 h at 25° C. Products were purified using phenol: chloroform, and run on denaturing PAGE.
Effects of these compounds on NHEJ and Ligase IV mediated joining were evaluated (FIG. 4A-K). The reactions were terminated by EDTA (10 mM), products were purified using phenol/chloroform, precipitated with chilled ethanol and glycogen, and resolved on 8% denaturing PAGE. The gel was dried, exposed, and signal was detected using phosphor Imager FLA9000 (Fuji, Japan), and quantified in MultiGauge software expressed as Photo Stimulated Luminescence Units (PSLU). Inhibition of end joining was reported at 200 μM and 100 μM, respectively for SCR116 and SCR132 (FIGS. 4A, B, C and D), with >50% inhibition at 200 and 100 μM concentrations, respectively. […] FIG. 4K depict the purification profile of Ligase IV and XRCC4. […]

Another series has as its system rat testicular extracts. In words: Inhibition of end joining of rat testicular extracts (NHEJ). It counts as biochemical. The settings on record: for Inhibition of end joining (in words): 200 μM; for Inhibition of end joining (no joined product observed): 500 μM, rat testicular extract; for End joining after Ligase IV added back to inhibited testicular extract: complementation with purified Ligase IV/XRCC4. How it is done:
The compounds of the present invention were tested for their effects on inhibition of DNA end joining reactions using rat tissue extracts and purified DNA Ligase IV/XRCC4. Rat testicular extracts were prepared from testes of 4-6 week old male Wistar rats, Rattus norvegicus using ammonium sulphate precipitation method. To determine end joining of cell-free extracts, radiolabeled double-stranded (ds) oligomeric DNA substrate was incubated with rat testicular extract at 25° C. in suitable NHEJ buffer. Extracts were incubated for 30 min with the compounds of Formula I (01-41, 500 μM) as prepared in Example 1, and then radioactive DNA substrate was added to the reaction mixture and incubated for 1 h at 25° C. Reactions were stopped using EDTA, and products were purified using phenol: chloroform extraction and loaded on denaturing polyacrylamide gel. […] Joining efficiency was calculated using the intensity of product bands (150 bp or higher) in individual lanes in Multi Gauge software as compared to control (lanes 2,3). Lane 1 denotes radioactive substrate in absence of protein or inhibitor, while M denotes radiolabeled 50 bp DNA ladder.
Effects of these compounds on NHEJ and Ligase IV mediated joining were evaluated (FIG. 4A-K). The reactions were terminated by EDTA (10 mM), products were purified using phenol/chloroform, precipitated with chilled ethanol and glycogen, and resolved on 8% denaturing PAGE. The gel was dried, exposed, and signal was detected using phosphor Imager FLA9000 (Fuji, Japan), and quantified in MultiGauge software expressed as Photo Stimulated Luminescence Units (PSLU). Inhibition of end joining was reported at 200 μM and 100 μM, respectively for SCR116 and SCR132 (FIGS. 4A, B, C and D), with >50% inhibition at 200 and 100 μM concentrations, respectively. […] FIG. 4K depict the purification profile of Ligase IV and XRCC4. Further FIGS. 4L-M represent inhibition of end joining catalysed by (FIG. 4L) purified Ligase III/XRCCI in presence of SCR116 and SCR132 (50, 100, 200, 500, 1000 μM) and (FIG. 4M) by purified Ligase I in presence of increasing concentrations of SCR116 and SCR132 (10, 50, 100, 200, 500, 1000 μM).

Molecules are shown by their SMILES.

T1 sequence (P18858 whole entry): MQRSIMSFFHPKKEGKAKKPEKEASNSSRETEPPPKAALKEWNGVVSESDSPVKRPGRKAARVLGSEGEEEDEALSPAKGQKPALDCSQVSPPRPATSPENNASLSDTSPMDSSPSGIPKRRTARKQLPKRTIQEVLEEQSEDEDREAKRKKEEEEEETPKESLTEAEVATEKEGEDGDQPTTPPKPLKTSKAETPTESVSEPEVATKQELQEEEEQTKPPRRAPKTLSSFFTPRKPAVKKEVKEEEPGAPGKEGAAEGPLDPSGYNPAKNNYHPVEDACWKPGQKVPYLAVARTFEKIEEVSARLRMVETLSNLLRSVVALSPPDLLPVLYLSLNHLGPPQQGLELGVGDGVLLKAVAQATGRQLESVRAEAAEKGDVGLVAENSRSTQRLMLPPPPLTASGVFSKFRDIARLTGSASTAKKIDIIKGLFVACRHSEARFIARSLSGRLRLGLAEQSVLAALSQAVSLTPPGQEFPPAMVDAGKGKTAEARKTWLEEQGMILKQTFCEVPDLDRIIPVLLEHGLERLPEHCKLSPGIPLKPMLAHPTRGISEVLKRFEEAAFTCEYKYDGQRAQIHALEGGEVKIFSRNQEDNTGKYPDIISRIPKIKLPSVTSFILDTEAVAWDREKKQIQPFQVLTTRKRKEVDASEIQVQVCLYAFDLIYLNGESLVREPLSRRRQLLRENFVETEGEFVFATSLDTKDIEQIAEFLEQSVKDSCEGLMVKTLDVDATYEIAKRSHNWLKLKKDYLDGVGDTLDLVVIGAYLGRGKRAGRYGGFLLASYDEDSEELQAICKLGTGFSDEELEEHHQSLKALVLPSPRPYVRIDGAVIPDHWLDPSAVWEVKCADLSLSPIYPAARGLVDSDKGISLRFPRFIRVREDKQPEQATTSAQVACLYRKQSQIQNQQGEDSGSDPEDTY

With `Nc1nc(S)nc(O)c1/N=C/c1ccc([N+](=O)[O-])s1` [Compound 16, (E)-6-amino-2-mercapto-5-(((5-nitrothiophen-2-yl)methylene)amino)pyrimidin-4-ol], the IC50 with SUDHL8 is 685 nM. In addition, the “Course of serum level” value in series [1] is recorded as “continued to increase till 10 h”. Besides, the IC50 with Raji worked out at 4370 nM. Further, the 53BP1 foci result with 53BP1 foci in N114 was “no significant increase in the number of 53BP1 foci”. Besides, in the series on Molt4 derived xenograft (oral 10 mg/kg), the Tumor volume entry was “effectively reduced the tumor volume” and the Survival entry was “survived the entire experimental period”. The IC50 in the series with CEM turned out to be 5770 nM. Further, the “DNA damage marker 53BP1” value in the series with 53BP1 foci in HeLa cells is “increase in DNA damage marker 53BP1”. The “Inhibition of end joining with Ligase I” value on Ligase I was “no inhibition”. Besides, in the series on rat testicular extracts, the “Inhibition of end joining (in words)” value was “complete inhibition of end joining”, the “Inhibition of end joining (no joined product observed)” value is listed as “showed inhibition of end joining” and the “End joining after Ligase IV added back to inhibited testicular extract” value is recorded as “joining efficiency was restored”.
On to `Nc1nc(S)nc(O)c1/N=C/c1sc(Cl)nc1Cl` [Compound 32, (E)-6-amino-5-(((2,4-dichlorothiazol-5-yl)methylene)amino)-2-mercaptopyrimidin-4-ol], for which the IC50 with SUDHL8 came out at 810 nM. Moreover, the “Course of serum level” value in series [1] was “became stabilized between 4 h and 6 h”. For the same compound, the IC50 with Raji is 1590 nM. In addition, in the series with 53BP1 foci in N114, the 53BP1 foci entry was “no significant increase in the number of 53BP1 foci”. Moreover, in the series on Molt4 derived xenograft (oral 15 mg/kg), the Tumor volume entry is reported as “effectively reduced the tumor volume” and the Survival entry is “survived the entire experimental period”. Besides, the IC50 in the series with CEM is 3830 nM. Moreover, the “DNA damage marker 53BP1” value in the series on 53BP1 foci in HeLa cells is reported as “increase in DNA damage marker 53BP1”. Also, the “Inhibition of end joining with Ligase I” value on Ligase I is listed as “no inhibition”. Moreover, in the series with rat testicular extracts, the “Inhibition of end joining (in words)” value is reported as “complete inhibition of end joining”, the “Inhibition of end joining (no joined product observed)” value is on record as “showed inhibition of end joining” and the “End joining after Ligase IV added back to inhibited testicular extract” value was “joining efficiency was restored”.
